Test results reported in patent EP0465716A1, “Optically active thiazetoquino-line-3-carboxylic acid compound, method for preparation thereof, and a pharmaceutical composition comprising the same” (priority 1990, dated 1992).
In brackets after ≈: the same amount, converted by molar mass.

How the values were obtained:
[1] = test system: Enterobacter cloacae 963; experiment: MIC, twofold agar dilution method (standard laboratory strain); format: cell-based; settings: Enterobacter cloacae 963, Gram -; 10^6 cfu/ml; 18 hrs at 37 °C
Procedure: (§1) Overnight cultures in Mueller-Hinton broth were suspended by buffered saline gelatin. One loopful of the bacterial suspension (10⁶ or 10⁸ colony-forming units/ml) was incubated onto the plates containing test compounds. The plates were incubated for 18 hrs at 37 °C. The MIC was defined by the lowest concentration of the drug that inhibited visible growth of bacteria.

[2] = test system: Escherichia coli NIHJ JC-2; experiment: as above; format: cell-based; settings: NIHJJC2; Escherichia coli NIHJ JC-2, Gram -; 10^6 cfu/ml; 18 hrs at 37 °C
Procedure: as §1

[3] = test system: Pseudomonas aeruginosa IFO 3445; experiment: as above; format: cell-based; settings: IFO3445; Pseudomonas aeruginosa IFO 3445, Gram -; 10^6 cfu/ml; 18 hrs at 37 °C
Procedure: as §1

[4] = test system: Serratia marcescens IAM 1184; experiment: as above; format: cell-based; settings: IAM1184; Serratia marcescens IAM 1184, Gram -; 10^6 cfu/ml; 18 hrs at 37 °C
Procedure: as §1

[5] = test system: Staphylococuss aureus FDA 209PJC-1; experiment: as above; format: cell-based; settings: Staphylococuss aureus FDA 209PJC-1, Gram +; 10^6 cfu/ml; 18 hrs at 37 °C
Procedure: as §1

[6] = test system: Klebsiella pneumoniae PCI-602; experiment: as above; format: cell-based; settings: PCI602; Klebsiella pneumoniae PCI-602, Gram -; 10^6 cfu/ml; 18 hrs at 37 °C; read-out: MIC
Procedure: as §1, with “Minimum inhibitory concentrations (MIC) of test compounds were determined by the twofold agar dilution method (Chemotherapy, 29(1), 76(1981)). Overnight” for “Overnight”

[7] = test system: Acinetobacter calcoaceticus HNR 904; experiment: MIC, twofold agar dilution method (clinically isolated strain); format: cell-based; settings: HNR904; Acinetobacter calcoaceticus HNR 904, Gram -; 10^6 cfu/ml; 18 hrs at 37 °C
Procedure: as §1

[8] = test system: Acinetobacter calcoaceticus HNR 916; experiment: as above; format: cell-based; settings: HNR916; Acinetobacter calcoaceticus HNR 916, Gram -; 10^6 cfu/ml; 18 hrs at 37 °C
Procedure: as §1

[9] = test system: Acinetobacter calcoaceticus HNR 939; experiment: as above; format: cell-based; settings: HNR939; Acinetobacter calcoaceticus HNR 939, Gram -; 10^6 cfu/ml; 18 hrs at 37 °C
Procedure: as §1

[10] = test system: Enterobacter cloacae HNR 1939; experiment: as above; format: cell-based; settings: HNR1939; Enterobacter cloacae HNR 1939, Gram -; 10^6 cfu/ml; 18 hrs at 37 °C
Procedure: as §1

[11] = test system: Enterobacter cloacae HNR 1941; experiment: as above; format: cell-based; settings: HNR1941; Enterobacter cloacae HNR 1941, Gram -; 10^6 cfu/ml; 18 hrs at 37 °C
Procedure: as §1

[12] = test system: Enterobacter cloacae HNR 1946; experiment: as above; format: cell-based; settings: HNR1946; Enterobacter cloacae HNR 1946, Gram -; 10^6 cfu/ml; 18 hrs at 37 °C
Procedure: as §1

[13] = test system: Enterococcus faecalis HPC 948; experiment: as above; format: cell-based; settings: HPC948; Enterococcus faecalis HPC 948, Gram +; 10^6 cfu/ml; 18 hrs at 37 °C
Procedure: as §1

[14] = test system: Enterococcus faecalis HPC 975; experiment: as above; format: cell-based; settings: HPC975; Enterococcus faecalis HPC 975, Gram +; 10^6 cfu/ml; 18 hrs at 37 °C
Procedure: as §1

[15] = test system: Enterococcus faecalis HPC 984; experiment: as above; format: cell-based; settings: HPC984; Enterococcus faecalis HPC 984, Gram +; 10^6 cfu/ml; 18 hrs at 37 °C
Procedure: as §1

[16] = test system: Klebsiella pneumoniae HNR 828; experiment: as above; format: cell-based; settings: HNR828; Klebsiella pneumoniae HNR 828, Gram -; 10^6 cfu/ml; 18 hrs at 37 °C
Procedure: as §1

[17] = test system: Klebsiella pneumoniae HNR 858; experiment: as above; format: cell-based; settings: HNR858; Klebsiella pneumoniae HNR 858, Gram -; 10^6 cfu/ml; 18 hrs at 37 °C
Procedure: as §1

[18] = test system: Klebsiella pneumoniae HNR 869; experiment: as above; format: cell-based; settings: HNR869; Klebsiella pneumoniae HNR 869, Gram -; 10^6 cfu/ml; 18 hrs at 37 °C
Procedure: as §1

[19] = test system: Pseudomonas aeruginosa HNR 1472; experiment: as above; format: cell-based; settings: HNR1472; Pseudomonas aeruginosa HNR 1472, Gram -; 10^6 cfu/ml; 18 hrs at 37 °C
Procedure: as §1

[20] = test system: Pseudomonas aeruginosa HNR 1489; experiment: as above; format: cell-based; settings: HNR1489; Pseudomonas aeruginosa HNR 1489, Gram -; 10^6 cfu/ml; 18 hrs at 37 °C
Procedure: as §1

[21] = test system: Pseudomonas aeruginosa HNR 1537; experiment: as above; format: cell-based; settings: HNR1537; Pseudomonas aeruginosa HNR 1537, Gram -; 10^6 cfu/ml; 18 hrs at 37 °C
Procedure: as §1

[22] = test system: Serratia marcescens HNR 1544; experiment: as above; format: cell-based; settings: HNR1544; Serratia marcescens HNR 1544, Gram -; 10^6 cfu/ml; 18 hrs at 37 °C
Procedure: as §1

[23] = test system: Serratia marcescens HNR 1767; experiment: as above; format: cell-based; settings: HNR1767; Serratia marcescens HNR 1767, Gram -; 10^6 cfu/ml; 18 hrs at 37 °C
Procedure: as §1

[24] = test system: Serratia marcescens HNR 1792; experiment: as above; format: cell-based; settings: HNR1792; Serratia marcescens HNR 1792, Gram -; 10^6 cfu/ml; 18 hrs at 37 °C
Procedure: as §1

[25] = test system: Staphylococcuss aureus HPC 292; experiment: as above; format: cell-based; settings: Staphylococcuss aureus HPC 292, Gram +; 10^6 cfu/ml; 18 hrs at 37 °C
Procedure: as §1

[26] = test system: Staphylococcuss aureus HPC 308; experiment: as above; format: cell-based; settings: Staphylococcuss aureus HPC 308, Gram +; 10^6 cfu/ml; 18 hrs at 37 °C
Procedure: as §1

[27] = test system: Staphylococcuss aureus HPC 527; experiment: as above; format: cell-based; settings: Staphylococcuss aureus HPC 527, Gram +; 10^6 cfu/ml; 18 hrs at 37 °C
Procedure: as §1

[28] = test system: Male mice of ddY strain; experiment: Convulsion inducing activity in combination with fenbufen; settings: thirty minutes after fenbufen 100 mg/kg orally
Procedure: Male mice of ddY strain, 5 weeks old, were used. Fenbufen suspended in 0.5 % carboxymethylcellulose was administered orally at a dose of 100 mg/kg. After thirty minutes, test compounds suspended in 0.5 % carboxymethylcellulose were injected intraperitoneally (i.p.) at a dose of 100 mg/kg or 300 mg/kg.

SMILES	MIC [1]	MIC [2]	MIC [3]	MIC [4]	MIC [5]	MIC [6]	MIC [7]	MIC [8]	MIC [9]	MIC [10]	MIC [11]	MIC [12]	MIC [13]	MIC [14]	MIC [15]	MIC [16]	MIC [17]	MIC [18]	MIC [19]	MIC [20]	also measured
CC1Sc2c(C(=O)O)c(=O)c3cc(F)c(N4CC[C@H](N)C4)c(Cl)c3n21 (single isomer, unassigned) [Example 15]	0.012 µg/mL (≈ 0.0313 µM)	0.012 µg/mL (≈ 0.0313 µM)	0.05 µg/mL (≈ 0.13 µM)	0.025 µg/mL (≈ 0.0651 µM)	0.025 µg/mL (≈ 0.0651 µM)	0.006 µg/mL (≈ 0.0156 µM)	6.25 µg/mL (≈ 16.3 µM)	0.05 µg/mL (≈ 0.13 µM)	0.78 µg/mL (≈ 2.03 µM)	0.1 µg/mL (≈ 0.261 µM)	0.78 µg/mL (≈ 2.03 µM)	0.1 µg/mL (≈ 0.261 µM)	0.39 µg/mL (≈ 1.02 µM)	1.56 µg/mL (≈ 4.06 µM)	0.1 µg/mL (≈ 0.261 µM)	0.78 µg/mL (≈ 2.03 µM)	0.1 µg/mL (≈ 0.261 µM)	0.2 µg/mL (≈ 0.521 µM)	1.56 µg/mL (≈ 4.06 µM)	0.1 µg/mL (≈ 0.261 µM)	MIC [21]: 1.56 µg/mL (≈ 4.06 µM); MIC [22]: 0.025 µg/mL (≈ 0.0651 µM); MIC [23]: 1.56 µg/mL (≈ 4.06 µM); MIC [24]: 0.39 µg/mL (≈ 1.02 µM); MIC [25]: 1.56 µg/mL (≈ 4.06 µM); MIC [26]: 0.39 µg/mL (≈ 1.02 µM); MIC [27]: 0.025 µg/mL (≈ 0.0651 µM); Number of convulsion induced / Number of animals ([28]; 100 mg/kg (i.p.)): 0 / 6; Number of convulsion induced / Number of animals ([28]; 300 mg/kg (i.p.)): 0 / 6
CC1Sc2c(C(=O)O)c(=O)c3cc(F)c(N4CC[C@@H](N)C4)c(Cl)c3n21 (single isomer, unassigned) [Example 17]	0.05 µg/mL (≈ 0.13 µM)	0.025 µg/mL (≈ 0.0651 µM)	0.1 µg/mL (≈ 0.261 µM)	0.05 µg/mL (≈ 0.13 µM)	0.025 µg/mL (≈ 0.0651 µM)	0.025 µg/mL (≈ 0.0651 µM)	12.5 µg/mL (≈ 32.6 µM)	0.1 µg/mL (≈ 0.261 µM)	0.78 µg/mL (≈ 2.03 µM)	0.1 µg/mL (≈ 0.261 µM)	1.56 µg/mL (≈ 4.06 µM)	0.2 µg/mL (≈ 0.521 µM)	0.39 µg/mL (≈ 1.02 µM)	1.56 µg/mL (≈ 4.06 µM)	0.1 µg/mL (≈ 0.261 µM)	1.56 µg/mL (≈ 4.06 µM)	0.2 µg/mL (≈ 0.521 µM)	0.78 µg/mL (≈ 2.03 µM)	3.13 µg/mL (≈ 8.15 µM)	0.2 µg/mL (≈ 0.521 µM)	MIC [21]: 6.25 µg/mL (≈ 16.3 µM); MIC [22]: 0.05 µg/mL (≈ 0.13 µM); MIC [23]: 6.25 µg/mL (≈ 16.3 µM); MIC [24]: 1.56 µg/mL (≈ 4.06 µM); MIC [25]: 1.56 µg/mL (≈ 4.06 µM); MIC [26]: 0.78 µg/mL (≈ 2.03 µM); MIC [27]: 0.05 µg/mL (≈ 0.13 µM)
CC1Sc2c(C(=O)O)c(=O)c3cc(F)c(N4CC[C@H](N)C4)c(F)c3n21 (single isomer, unassigned) [Example 18]	0.006 µg/mL (≈ 0.0163 µM)	0.006 µg/mL (≈ 0.0163 µM)	0.025 µg/mL (≈ 0.068 µM)	0.012 µg/mL (≈ 0.0327 µM)	0.006 µg/mL (≈ 0.0163 µM)	≤ 0.0015 µg/mL	3.13 µg/mL (≈ 8.52 µM)	0.025 µg/mL (≈ 0.068 µM)	0.78 µg/mL (≈ 2.12 µM)	0.05 µg/mL (≈ 0.136 µM)	1.56 µg/mL (≈ 4.25 µM)	0.1 µg/mL (≈ 0.272 µM)	0.39 µg/mL (≈ 1.06 µM)	1.56 µg/mL (≈ 4.25 µM)	0.05 µg/mL (≈ 0.136 µM)	0.78 µg/mL (≈ 2.12 µM)	0.05 µg/mL (≈ 0.136 µM)	0.39 µg/mL (≈ 1.06 µM)	1.56 µg/mL (≈ 4.25 µM)	0.05 µg/mL (≈ 0.136 µM)	MIC [21]: 3.13 µg/mL (≈ 8.52 µM); MIC [22]: 0.012 µg/mL (≈ 0.0327 µM); MIC [23]: 3.13 µg/mL (≈ 8.52 µM); MIC [24]: 0.78 µg/mL (≈ 2.12 µM); MIC [25]: 0.78 µg/mL (≈ 2.12 µM); MIC [26]: 0.39 µg/mL (≈ 1.06 µM); MIC [27]: 0.012 µg/mL (≈ 0.0327 µM); Number of convulsion induced / Number of animals ([28]; 100 mg/kg (i.p.)): 0 / 6; Number of convulsion induced / Number of animals ([28]; 300 mg/kg (i.p.)): 0 / 6
